Assay results reported in patent US10947213B1 (Merck Patent GmbH, priority 2015, dated 2021).
Counter-ions that a name gives are not always drawn.

target: T1, TLR7/NFKb HEK cells (Homo sapiens, UniProt Q9NYK1); assay: HEK Cell Assay (TLR7/NFKb reporter, Steady-Glo luciferase readout); assay type: cell-based; settings: 30 min compound preincubation, then R*48 agonist for 5 hours, read-out: Potency
T1 construct: expressed in transfected cells; host or cells: HEK cells (TLR7/NFKb reporter line)
T1 sequence (Q9NYK1 27-1049): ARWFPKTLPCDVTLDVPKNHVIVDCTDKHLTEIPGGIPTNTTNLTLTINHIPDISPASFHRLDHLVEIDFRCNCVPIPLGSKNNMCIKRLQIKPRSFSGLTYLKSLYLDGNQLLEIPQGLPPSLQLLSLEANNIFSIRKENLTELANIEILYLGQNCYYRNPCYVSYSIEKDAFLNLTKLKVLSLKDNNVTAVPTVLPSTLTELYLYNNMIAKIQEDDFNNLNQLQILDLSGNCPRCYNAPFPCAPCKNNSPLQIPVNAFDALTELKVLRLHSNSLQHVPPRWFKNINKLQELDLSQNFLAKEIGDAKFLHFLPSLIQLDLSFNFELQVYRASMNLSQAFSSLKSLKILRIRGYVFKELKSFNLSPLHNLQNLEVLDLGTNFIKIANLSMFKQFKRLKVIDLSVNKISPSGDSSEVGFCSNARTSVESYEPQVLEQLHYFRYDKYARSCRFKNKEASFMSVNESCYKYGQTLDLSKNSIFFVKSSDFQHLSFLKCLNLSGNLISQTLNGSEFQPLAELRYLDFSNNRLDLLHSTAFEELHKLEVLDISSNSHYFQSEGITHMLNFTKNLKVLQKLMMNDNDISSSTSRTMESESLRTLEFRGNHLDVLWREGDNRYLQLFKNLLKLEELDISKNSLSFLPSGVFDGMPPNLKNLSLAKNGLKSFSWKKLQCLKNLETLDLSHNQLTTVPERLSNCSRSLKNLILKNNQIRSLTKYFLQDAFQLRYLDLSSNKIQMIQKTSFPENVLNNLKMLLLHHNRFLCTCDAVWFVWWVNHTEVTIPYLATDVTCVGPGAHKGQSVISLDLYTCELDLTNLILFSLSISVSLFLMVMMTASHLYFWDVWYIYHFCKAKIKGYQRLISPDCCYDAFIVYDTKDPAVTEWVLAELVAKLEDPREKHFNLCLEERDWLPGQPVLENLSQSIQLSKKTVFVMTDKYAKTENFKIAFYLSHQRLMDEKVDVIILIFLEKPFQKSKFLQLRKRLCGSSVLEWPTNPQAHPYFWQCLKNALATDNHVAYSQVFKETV
In short: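 Steady-Glo luminescence after 5 h stimulation with R*48 agonist, following 30 min compound preincubation. Assay run in HEK cells carrying a TLR7/NFKb luciferase reporter, plated at 5000 cells/well and grown 24 h at 37° C (10% CO2) before treatment.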

| IC50 [µM] | SMILES |
| --- | --- |
| < 1 | N#Cc1ccc(N2CCC(C(=O)NC3CCN(CC4CC4)C3)CC2)c2cccnc12 (centres unmarked) [Compound 434, 1-(8-Cyano-quinolin-5-yl)-piperidine-4-carboxylic Acid (1-cyclopropylmethyl-pyrrolidin-3-yl)-amide] |
| < 1 | CCN(C)CCNC(=O)C1CCN(c2ccc(C(F)(F)F)c3ncccc23)CC1 [Compound 436, 1-(8-Trifluoromethyl-quinolin-5-yl)-piperidine-4-carboxylic acid [2-(ethyl-methyl-amino)-ethyl]-amide] |
| < 1 | N#Cc1ccc(N2CCC(C(=O)NCCN3CCCCC3)CC2)c2nccnc12 [Compound 440, 1-(8-Cyano-quinoxalin-5-yl)-piperidine-4-carboxylic Acid (2-piperidin-1-yl-ethyl)-amide] |
| < 1 | O=C(NCCN1CCCCC1)C1CCN(c2ccc(C(F)(F)F)c3ncccc23)CC1 [Compound 441, 1-(8-Trifluoromethyl-quinolin-5-yl)-piperidine-4-carboxylic Acid (2-piperidin-1-yl-ethyl)-amide] |
| < 1 | CN1CCCC1CNC(=O)C1CCN(c2ccc(C(F)(F)F)c3ncccc23)CC1 (centres unmarked) [Compound 442, 1-(8-Trifluoromethyl-quinolin-5-yl)-piperidine-4-carboxylic acid (1-methyl-pyrrolidin-2-ylmethyl)-amide] |
| < 1 | CCN(CC)CCNC(=O)C1CCN(c2ccc(C(F)(F)F)c3ncccc23)CC1 [Compound 446, 1-(8-Trifluoromethyl-quinolin-5-yl)-piperidine-4-carboxylic Acid (2-diethylamino-ethyl)-amide] |
| < 1 | C[C@H]1C[C@@H](NC(=O)CN(C)C)CN(c2ccc(C#N)c3ncncc23)C1 [Compound 447, N-[(3R,5S)-1-(8-Cyano-quinazolin-5-yl)-5-methyl-piperidin-3-yl]-2-dimethylamino-acetamide] |
| 1 to 10 | CN(C)C(=O)CCC(=O)N1CCN(c2ccc(C#N)c3nccnc23)CC1 [Compound 454, 4-[4-(8-Cyano-quinoxalin-5-yl)-piperazin-1-yl]-N,N-dimethyl-4-oxo-butyramide] |
| < 1 | O=C(N[C@@H]1CNC[C@@H]1F)C1CCN(c2ccc(C(F)(F)F)c3ncccc23)CC1 [Compound 464, 1-(8-Trifluoromethyl-quinolin-5-yl)-piperidine-4-carboxylic acid ((3R,4S)-4-fluoro-pyrrolidin-3-yl)-amide hydrochloride] |
| 1 to 10 | Cc1ccc(N2C[C@@H](C)C[C@@H](NC(=O)CN3CCOCC3)C2)c2cccnc12 [Compound 466, N-[(3R,5S)-5-Methyl-1-(8-methyl-quinolin-5-yl)-piperidin-3-yl]-2-morpholin-4-yl-acetamide] |
| < 1 | C[C@@H]1CN(c2ccc(C#N)c3nccnc23)C[C@H](CN2CCC(N3CCOCC3)CC2)O1 [Compound 467, 8-[(2R,6S)-2-methyl-6-{[4-(morpholin-4-yl)piperidin-1-yl]methyl}morpholin-4-yl]quinoxaline-5-carbonitrile] |
| 1 to 10 | C[C@H]1C[C@@H](NC(=O)CN(C)C)CN(c2ccc(F)c3ncccc23)C1 [Compound 469, 2-Dimethylamino-N-[(3R,5S)-1-(8-fluoro-quinolin-5-yl)-5-methyl-piperidin-3-yl]-acetamide] |

Second part, the compound before the results:

| SMILES | IC50 [µM] |
| --- | --- |
| CCN1CCC[C@H]1C(=O)NCC1CCN(c2ccc(C#N)c3ncccc23)CC1 [Compound 435, (S)-1-Ethyl-pyrrolidine-2-carboxylic Acid [1-(8-cyano-quinolin-5-yl)-piperidin-4-ylmethyl]-amide] | < 1 |
| N#Cc1ccc(N2CCC(C(=O)NCCN3CCC3)CC2)c2cccnc12 [Compound 439, 1-(8-Cyano-quinolin-5-yl)-piperidine-4-carboxylic Acid (2-azetidin-1-yl-ethyl)-amide] | < 1 |
| CCN(CC)CC(=O)NCC1CCN(c2ccc(C(F)(F)F)c3ncccc23)CC1 [Compound 443, 2-Diethylamino-N-[1-(8-trifluoromethyl-quinolin-5-yl)-piperidin-4-ylmethyl]-acetamide] | < 1 |
| O=C(CN1CCCCC1)NCC1CCN(c2ccc(C(F)(F)F)c3ncccc23)CC1 [Compound 448, 2-Piperidin-1-yl-N-[1-(8-trifluoromethyl-quinolin-5-yl)-piperidin-4-ylmethyl]-acetamide] | 1 to 10 |
| CN[C@@H]1C[C@H](C)CN(c2ccc(C(F)(F)F)c3ncccc23)C1 [Compound 451, Methyl-[(3R,5S)-5-methyl-1-(8-trifluoromethyl-quinolin-5-yl)-piperidin-3-yl]-amine hydrochloride] | < 1 |
| C[C@H]1C[C@@H](N(C)C(=O)CN(C)C)CN(c2ccc(C(F)(F)F)c3ncccc23)C1 [Compound 452, 2-Dimethylamino-N-methyl-N-[(3R,5S)-5-methyl-1-(8-trifluoromethyl-quinolin-5-yl)-piperidin-3-yl]-acetamide] | < 1 |
| CCN(CC)CCNC(=O)N1CCN(c2ccc(C#N)c3nccnc23)CC1 [Compound 453, 4-(8-Cyano-quinoxalin-5-yl)-piperazine-1-carboxylic acid (2-diethylamino-ethyl)-amide] | < 1 |
| C[C@@H]1CN(c2ncc(F)c3nccnc23)C[C@H](C)O1 [Compound 455, cis-5-(2,6-Dimethyl-morpholin-4-yl)-8-fluoro-pyrido[3,4-b]pyrazine] | > 10 |
| CCN(CC)CCNC(=O)C1CCN(c2ncc(F)c3nccnc23)CC1 [Compound 456, 1-(8-Fluoro-pyrido[3,4-b]pyrazin-5-yl)-piperidine-4-carboxylic Acid (2-diethylamino-ethyl)-amide] | > 10 |
| C[C@H]1C[C@@H](N)CN(c2ncc(C#N)c3ncncc23)C1 [Compound 458, 5-((3R,5S)-3-Amino-5-methyl-piperidin-1-yl)-pyrido[4,3-d]pyrimidine-8-carbonitrile hydrochloride] | > 10 |
| C[C@H]1C[C@@H](N)CN(c2ncc(F)c3nccnc23)C1 [Compound 459, (3R,5S)-1-(8-Fluoro-pyrido[3,4-b]pyrazin-5-yl)-5-methyl-piperidin-3-ylamine hydrochloride] | 1 to 10 |
| C[C@H]1C[C@@H](NC(=O)CN(C)C)CN(c2ncc(F)c3nccnc23)C1 [Compound 460, 2-Dimethylamino-N-[(3R,5S)-1-(8-fluoro-pyrido[3,4-b]pyrazin-5-yl)-5-methyl-piperidin-3-yl]-acetamide] | > 10 |
| Cc1ccc(N2C[C@@H](C)C[C@@H](N)C2)c2cccnc12 [Compound 462, (3R,5S)-5-Methyl-1-(8-methyl-quinolin-5-yl)-piperidin-3-ylamine hydrochloride] | < 1 |
| CN(C)CCNC(=O)N1CCN(c2ccc(C#N)c3nccnc23)CC1 [Compound 463, 4-(8-Cyano-quinoxalin-5-yl)-piperazine-1-carboxylic Acid (2-dimethylamino-ethyl)-amide] | < 1 |
| C[C@H]1C[C@@H](N(C)C(=O)CC(C)(C)N)CN(c2ccc(C(F)(F)F)c3ncccc23)C1 [Compound 465, 3-Amino-3,N-dimethyl-N-[(3R,5S)-5-methyl-1-(8-trifluoromethyl-quinolin-5-yl)-piperidin-3-yl]-butyramide] | < 1 |
| C[C@@H]1CN(c2ccc(C#N)c3nccnc23)C[C@H](C(=O)NC2CCN(C)CC2)O1 [Compound 468, (2R,6R)-4-(8-cyanoquinoxalin-5-yl)-6-methyl-N-(1-methylpiperidin-4-yl)morpholine-2-carboxamide] | < 1 |
| C[C@H]1C[C@@H](NC(=O)CN2CCOCC2)CN(c2ccc(F)c3ncccc23)C1 [Compound 470, N-[(3R,5S)-1-(8-Fluoro-quinolin-5-yl)-5-methyl-piperidin-3-yl]-2-morpholin-4-yl-acetamide] | 1 to 10 |
| C[C@H]1C[C@@H](NC(=O)CC2CCN(C)CC2)CN(c2ccc(F)c3ncccc23)C1 [Compound 471, N-[(3R,5S)-1-(8-Fluoro-quinolin-5-yl)-5-methyl-piperidin-3-yl]-2-(1-methyl-piperidin-4-yl)-acetamide] | < 1 |
| C#CC(=O)N[C@@H]1C[C@H](C)CN(c2ccc(C(F)(F)F)c3ncccc23)C1 [Compound 472, Propynoic acid [(3R,5S)-5-methyl-1-(8-trifluoromethyl-quinolin-5-yl)-piperidin-3-yl]-amide] | < 1 |
| C#CCC(=O)N[C@@H]1C[C@H](C)CN(c2ccc(C(F)(F)F)c3ncccc23)C1 [Compound 473, But-3-ynoic acid [(3R,5S)-5-methyl-1-(8-trifluoromethyl-quinolin-5-yl)-piperidin-3-yl]-amide] | < 1 |
